# Like-named read-outs stand apart in the source and are kept apart here.
# Columns and labels:
# [1] = system: MCF-7 (breast carcinoma) cell line; test: MTT cytotoxic assay, MCF-7; type: cell-based; conditions: for IC50: MTT, 72 h, 3 repetitions, read-out: IC50 ± SD MCF-7
# Procedure: The antiproliferative activity of all the synthesized compounds (8a-8 h) was done by MTT (standard 3-(4,5-dimethylthiazol-yl)-2,5-diphenyl-tetrazolium bromide) assay according to our previous protocols. MCF-7 (breast carcinoma) and SW480 (Colorectal carcinoma) cell lines were choose and purchased from the National Cell Bank of Iran (NCBI, Pasteur Institute, Tehran, Iran). RPMI 1640 culture media with 10% fetal bovine serum (FBS) and 1% penicillin-streptomycin (Gibco, USA) were applied as culture. Trypsin/EDTA 0.5% solution (Gibco/USA) was used to harvest cells and then, the cells were seeded at a density of 1 × 10^4 cells per well in 96-well microplates. […] Three untreated wells were applied as the negative control. After 72 h, the media was changed by 100 µL fresh MTT solution and incubated for 4 h at 37 °C in the incubator to achieve formazan purple crystals. Finally, the media was removed and 150 µL of DMSO was added and incubated at 37 °C in the dark for 10 min to dissolve the crystals. A Microplate ELISA reader was applied to read the absorbance of individual wells at 490 nm. Analysis of the data was obtained by Excel 2016 and Curve Expert 1.4. The data was expressed as the mean ± SD for each analysis. GraphPad Prism software was used to perform one-way ANOVA statistical analyses, followed by Tukey’s multiple comparison test.
# [2] = system: SW480 (Colorectal carcinoma) cell line; test: MTT cytotoxic assay, SW480; type: cell-based; conditions: Homo sapiens, 72 h, 3 repetitions, read-out: IC50 ± SD SW480
# Procedure: The antiproliferative activity of all the synthesized compounds (8a-8 h) was done by MTT (standard 3-(4,5-dimethylthiazol-yl)-2,5-diphenyl-tetrazolium bromide) assay according to our previous protocols. MCF-7 (breast carcinoma) and SW480 (Colorectal carcinoma) cell lines were choose and purchased from the National Cell Bank of Iran (NCBI, Pasteur Institute, Tehran, Iran). RPMI 1640 culture media with 10% fetal bovine serum (FBS) and 1% penicillin-streptomycin (Gibco, USA) were applied as culture. Trypsin/EDTA 0.5% solution (Gibco/USA) was used to harvest cells and then, the cells were seeded at a density of 1 × 10^4 cells per well in 96-well microplates. Five different concentrations of the derivatives and Cisplatin as the positive control (1 to 200 µM) were used for treatment in triplicate times. Three untreated wells were applied as the negative control. After 72 h, the media was changed by 100 µL fresh MTT solution and incubated for 4 h at 37 °C in the incubator to achieve formazan purple crystals. Finally, the media was removed and 150 µL of DMSO was added and incubated at 37 °C in the dark for 10 min to dissolve the crystals. A Microplate ELISA reader was applied to read the absorbance of individual wells at 490 nm. Analysis of the data was obtained by Excel 2016 and Curve Expert 1.4. The data was expressed as the mean ± SD for each analysis. GraphPad Prism software was used to perform one-way ANOVA statistical analyses, followed by Tukey’s multiple comparison test.
# MRC-5 normal cell line = test: MTT cytotoxic assay, normal cell line MRC-5; type: cell-based; conditions: read-out: IC50 ± SD MRC-5
# [3] = Homo sapiens, MRC5, 3 repetitions
Structure (SMILES),melting point [°C],"IC50 ([1]; Homo sapiens, MCF7) [µM]",times more potent than Erlotinib in MCF-7 cell line ([1]; cytotoxic activity compared with Erlotinib),IC50 [2] [µM],IC50 (MRC-5 normal cell line; [3]) [µM],IC50 [1] [µM],IC50 (MRC-5 normal cell line; 3 repetitions) [µM]
"CCCCSc1nc2ccc(Br)cc2c(=O)n1-c1ccccc1 [8a, 6-bromo-2-(butylthio)-3-phenylquinazolin-4(3 H )-one]",128 to 130,15.8 ± 1.48,about 2 times,17.9 ± 0.92,84.2 ± 1.72,–,–
"CCCCCSc1nc2ccc(Br)cc2c(=O)n1-c1ccccc1 [8b, 6-bromo-2-(pentylthio)-3-phenylquinazolin-4(3 H )-one]",99 to 101,18.2 ± 2.01,–,56.5 ± 2.83,76.4 ± 2.62,–,–
"O=c1c2cc(Br)ccc2nc(SCc2ccccc2)n1-c1ccccc1 [8c, 2-(benzylthio)-6-bromo-3-phenylquinazolin-4(3 H )-one]",140 to 142,142 ± 3.95,–,170.1 ± 1.34,> 100,–,–
"N.N.[Cl][Pt][Cl] [Cisplatin, reference compound]",–,–,–,–,–,9.9 ± 0.14,45.2 ± 2.5
"COc1cccc2c1C(=O)c1c(O)c3c(c(O)c1C2=O)C[C@@](O)(C(=O)CO)C[C@@H]3O[C@H]1C[C@H](N)[C@H](O)[C@H](C)O1 [Doxorubicin, reference compound]",–,2.5 ± 0.64,–,3.67 ± 0.24,0.52 ± 0.07,–,–
"C#Cc1cccc(Nc2ncnc3cc(OCCOC)c(OCCOC)cc23)c1 [Erlotinib, reference compound]",–,–,–,11.2 ± 0.38,22.9 ± 3.1,–,–

# Now from value to compound, other results behind:
melting point [°C],Structure (SMILES),"IC50 ([1]; Homo sapiens, MCF7) [µM]",times more potent than Erlotinib in MCF-7 cell line ([1]; cytotoxic activity compared with Erlotinib),IC50 [2] [µM],IC50 (MRC-5 normal cell line; [3]) [µM],IC50 [1] [µM],IC50 (MRC-5 normal cell line; 3 repetitions) [µM]
101 to 103,"Cc1cccc(CSc2nc3ccc(Br)cc3c(=O)n2-c2ccccc2)c1 [8d, 6-bromo-2-((3-methylbenzyl)thio)-3-phenylquinazolin-4(3 H )-one]",59.1 ± 3.73,–,72.5 ± 2.9,> 100,–,–
164 to 166,"Cc1ccc(CSc2nc3ccc(Br)cc3c(=O)n2-c2ccccc2)cc1 [8e, 6-bromo-2-((4-methylbenzyl)thio)-3-phenylquinazolin-4(3 H )-one]",35.1 ± 3.02,–,63.1 ± 1.63,> 100,–,–
145 to 147,"O=c1c2cc(Br)ccc2nc(SCc2ccc(Cl)cc2)n1-c1ccccc1 [8f, 6-bromo-2-((4-chlorobenzyl)thio)-3-phenylquinazolin-4(3 H )-one]",52.5 ± 2.92,–,72.2 ± 1.41,> 100,–,–
175 to 177,"O=c1c2cc(Br)ccc2nc(SCc2ccc(Br)cc2)n1-c1ccccc1 [8g, 6-bromo-2-((4-bromobenzyl)thio)-3-phenylquinazolin-4(3 H )-one]",62.4 ± 3.32,–,68.4 ± 2.62,> 100,–,–
231 to 233,"O=c1c2cc(Br)ccc2nc(SCc2ccc([N+](=O)[O-])cc2)n1-c1ccccc1 [8h, 6-bromo-2-((4-nitrobenzyl)thio)-3-phenylquinazolin-4(3 H )-one]",73.4 ± 3.09,–,65.4 ± 2.8,> 100,–,–
